Experiments:
JAK3 kinase = JAK3 kinase (Homo sapiens (Human), UniProt P52333); test: JAK3 Homogeneous Time Resolved Fluorescence (HTRF) Assay; format: binding; settings: for IC50: competition binding with fluorescein-labeled ATP competitive probe; for Ratio of JAK3 IC50 to IRAK4 IC50: selectivity for IRAK4 over JAK3
Method: JAK3 Homogeneous Time Resolved Fluorescence (HTRF) Assay
A time resolved FRET-based competition binding assay was used to assess test article binding to JAK3 kinase. His-tagged or GST-tagged kinase at a concentration of 1 nM was incubated with 0.2 nM Tb-labeled detection antibody (anti-His or anti-GST), test compound, and fluorescein-labeled ATP competitive probe at a concentration corresponding to the probe's equilibrium dissociation constant for one hour. Fluorescence at 495 nm and 520 nm was measured using an EnVision microplate reader to quantify FRET between Tb-labeled detection antibody and fluorescein-labeled probe. Background subtracted FRET ratios were normalized to the maximum signal obtained in the absence of test compound. These values were converted to a percent inhibition. Percent inhibition was determined for test compounds at 11 concentrations. The IC50, defined as the concentration of the competing test compound needed to reduce specific binding of the probe by 50%, was calculated using the 4 parameter logistic equation to fit the data.

IRAK4 = IRAK4 (Homo sapiens (Human), UniProt Q9NWZ3); test: IRAK4 Inhibition Assay; format: biochemical; settings: ATP 500 μM; IRAK4 0.6 nM; 60 min room temperature
Sequence of IRAK4 (Q9NWZ3 whole entry, species assumed): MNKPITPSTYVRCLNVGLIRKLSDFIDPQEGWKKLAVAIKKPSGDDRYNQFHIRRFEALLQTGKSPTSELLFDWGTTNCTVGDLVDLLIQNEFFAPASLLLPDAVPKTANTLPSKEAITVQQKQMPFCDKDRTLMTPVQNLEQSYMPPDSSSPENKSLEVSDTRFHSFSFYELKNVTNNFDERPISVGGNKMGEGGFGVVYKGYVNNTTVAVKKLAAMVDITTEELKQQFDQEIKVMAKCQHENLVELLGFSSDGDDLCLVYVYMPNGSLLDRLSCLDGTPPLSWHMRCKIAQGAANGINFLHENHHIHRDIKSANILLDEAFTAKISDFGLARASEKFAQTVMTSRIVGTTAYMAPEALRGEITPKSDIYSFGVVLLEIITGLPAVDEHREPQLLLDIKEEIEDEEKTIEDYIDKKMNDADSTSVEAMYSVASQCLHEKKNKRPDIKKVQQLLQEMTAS
Method: IRAK4 Inhibition Assay The assays were performed in U-bottom 384-well plates. […] The reaction was initiated by the combination of IRAK4 with substrates and test compounds. The reaction mixture was incubated at room temperature for 60 min. and terminated by adding 45 μL of 35 mM EDTA to each sample. The reaction mixture was analyzed on the Caliper LABCHIP® 3000 (Caliper, Hopkinton, MA) by electrophoretic separation of the fluorescent substrate and phosphorylated product. Inhibition data were calculated by comparison to no enzyme control reactions for 100% inhibition and vehicle-only reactions for 0% inhibition.

Sequence of JAK3 kinase (P52333 whole entry): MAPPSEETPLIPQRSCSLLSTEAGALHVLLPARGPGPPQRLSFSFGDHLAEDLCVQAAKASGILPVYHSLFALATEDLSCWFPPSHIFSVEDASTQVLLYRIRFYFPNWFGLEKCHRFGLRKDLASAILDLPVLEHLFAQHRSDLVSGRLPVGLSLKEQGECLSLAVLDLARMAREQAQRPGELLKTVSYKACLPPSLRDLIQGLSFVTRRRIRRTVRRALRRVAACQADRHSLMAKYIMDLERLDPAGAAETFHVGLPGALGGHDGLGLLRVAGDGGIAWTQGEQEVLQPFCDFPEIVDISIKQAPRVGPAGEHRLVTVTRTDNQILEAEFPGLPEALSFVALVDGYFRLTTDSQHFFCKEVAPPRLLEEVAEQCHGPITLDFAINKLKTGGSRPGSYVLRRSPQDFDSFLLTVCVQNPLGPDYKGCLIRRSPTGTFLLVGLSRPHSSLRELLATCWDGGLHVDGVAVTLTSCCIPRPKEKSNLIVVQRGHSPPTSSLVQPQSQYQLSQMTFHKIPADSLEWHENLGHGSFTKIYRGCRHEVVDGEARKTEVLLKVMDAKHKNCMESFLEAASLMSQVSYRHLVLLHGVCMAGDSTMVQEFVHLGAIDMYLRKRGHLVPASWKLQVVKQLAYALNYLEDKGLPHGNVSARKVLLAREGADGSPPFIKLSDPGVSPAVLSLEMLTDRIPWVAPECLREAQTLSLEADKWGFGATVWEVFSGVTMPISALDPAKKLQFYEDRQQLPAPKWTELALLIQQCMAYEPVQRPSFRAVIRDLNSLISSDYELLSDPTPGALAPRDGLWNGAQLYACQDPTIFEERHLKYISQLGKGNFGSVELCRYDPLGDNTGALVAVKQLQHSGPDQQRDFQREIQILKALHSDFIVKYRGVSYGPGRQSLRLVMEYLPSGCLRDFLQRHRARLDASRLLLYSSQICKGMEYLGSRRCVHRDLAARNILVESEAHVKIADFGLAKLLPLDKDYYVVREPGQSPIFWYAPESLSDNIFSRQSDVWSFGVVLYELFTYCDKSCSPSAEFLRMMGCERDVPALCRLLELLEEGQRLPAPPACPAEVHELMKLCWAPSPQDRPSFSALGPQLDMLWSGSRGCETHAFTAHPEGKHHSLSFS

Q: CC(C)Nc1c(C(=O)NC[C@@H](F)C(C)(C)O)cnn2cc(Nc3ccc(C#N)cn3)cc12 [Example 40, (R)-6-((5-cyanopyridin-2-yl)amino)-N-(2-fluoro-3-hydroxy-3-methylbutyl)-4-(isopropylamino) pyrrolo[1,2-b]pyridazine-3-carboxamide] was tested. Which IC50 (JAK3 kinase) did it give?
A: > 50 µM

Q: And the “Ratio of JAK3 IC50 to IRAK4 IC50” value (JAK3 kinase)?
A: >208

Q: And the IC50 (IRAK4)?
A: 0.24 µM

Q: Which results are given for Cc1ccccc1-c1cc2ncc(C(=O)NC[C@@H](F)C(C)(C)O)c(NC(C)C)n2n1 [Example 136, (R)—N-(2-fluoro-3-hydroxy-3-methylbutyl)-7-(isopropylamino)-2-(o-tolyl)pyrazolo[1,5-a]pyrimidine-6-carboxamide]?
A: IC50 (JAK3 kinase): > 10 µM; Ratio of JAK3 IC50 to IRAK4 IC50 (JAK3 kinase): >20; IC50 (IRAK4): 0.51 µM

Q: COc1ccc(-c2cc3ncc(C(=O)NC[C@@H](F)C(C)(C)O)c(NC(C)C)n3n2)cn1 [Example 142, (R)—N-(2-fluoro-3-hydroxy-3-methylbutyl)-7-(isopropylamino)-2-(6-methoxypyridin-3-yl)pyrazolo[1,5-a]pyrimidine-6-carboxamide] was tested. Which IC50 (JAK3 kinase) did it give?
A: > 10 µM

Q: What about the “Ratio of JAK3 IC50 to IRAK4 IC50” value (JAK3 kinase) of the same molecule?
A: >71

Q: What about the IC50 (IRAK4) of the same molecule?
A: 0.14 µM

Q: How did the IC50 (JAK3 kinase) turn out when CC(=O)N[C@H]1CC[C@H](NC(=O)c2cnn3cc(-c4cnc(F)cc4C)cc3c2NC(C)C)CC1 [Example 75, N-((1r,4r)-4-acetamidocyclohexyl)-6-(6-fluoro-4-methylpyridin-3-yl)-4-(isopropylamino)pyrrolo[1,2-b]pyridazine-3-carboxamide] was run?
A: ~22 µM

Q: What about the “Ratio of JAK3 IC50 to IRAK4 IC50” value (JAK3 kinase) of the same molecule?
A: ~3793

Q: What about the IC50 (IRAK4) of the same molecule?
A: 0.0058 µM

Q: For CC(C)Nc1c(C(=O)NC[C@@H](F)C(C)(C)O)cnc2cc(-n3ccccc3=O)nn12 [Example 151, (R)—N-(2-fluoro-3-hydroxy-3-methylbutyl)-7-(isopropylamino)-2-(2-oxopyridin-1(2H)-yl)pyrazolo[1,5-a]pyrimidine-6-carboxamide], which IC50 (JAK3 kinase) is on record?
A: > 50 µM

Q: What about the “Ratio of JAK3 IC50 to IRAK4 IC50” value (JAK3 kinase) of the same molecule?
A: >86

Q: And the IC50 (IRAK4)?
A: 0.58 µM

Q: How did the IC50 (JAK3 kinase) turn out when CC(C)Nc1c(C(=O)NC[C@@H](F)C(C)(C)O)cnc2cc(-c3ccncc3)nn12 [Example 122, (R)—N-(2-fluoro-3-hydroxy-3-methylbutyl)-7-(isopropylamino)-2-(pyridin-4-yl)pyrazolo[1,5-a] pyrimidine-6-carboxamide] was run?
A: > 10 µM

Q: And the “Ratio of JAK3 IC50 to IRAK4 IC50” value (JAK3 kinase)?
A: >625

Q: What about the IC50 (IRAK4) of the same molecule?
A: 0.016 µM

Q: Which results are given for CC(C)Nc1c(C(=O)NC[C@@H](F)C(C)(C)O)cnc2cc(-c3cnn(C)c3)nn12 [Example 126, (R)—N-(2-fluoro-3-hydroxy-3-methylbutyl)-7-(isopropylamino)-2-(1-methyl-1H-pyrazol-4-yl)pyrazolo[1,5-a]pyrimidine-6-carboxamide]?
A: IC50 (JAK3 kinase): > 50 µM; Ratio of JAK3 IC50 to IRAK4 IC50 (JAK3 kinase): >208; IC50 (IRAK4): 0.24 µM

Q: For CC(C)Nc1c(C(=O)NC[C@@H](F)C(C)(C)O)cnn2cc(-c3ccc(F)cc3)cc12 [Example 13, (R)—N-(2-fluoro-3-hydroxy-3-methylbutyl)-6-(4-fluorophenyl)-4-(isopropylamino)pyrrolo[1,2-b]pyridazine-3-carboxamide], which IC50 (JAK3 kinase) is on record?
A: > 50 µM

Q: What about the “Ratio of JAK3 IC50 to IRAK4 IC50” value (JAK3 kinase) of the same molecule?
A: >1724

Q: And the IC50 (IRAK4)?
A: 0.029 µM

Q: For CC(C)Nc1c(C(=O)NCCC(C)(C)O)cnn2cc(-c3cn[nH]c3)nc12 [Example 107, N-(3-hydroxy-3-methylbutyl)-8-(isopropylamino)-2-(1H-pyrazol-4-yl)imidazo[1,2-b]pyridazine-7-carboxamide], which IC50 (JAK3 kinase) is on record?
A: > 50 µM

Q: And the “Ratio of JAK3 IC50 to IRAK4 IC50” value (JAK3 kinase)?
A: >556

Q: What about the IC50 (IRAK4) of the same molecule?
A: 0.09 µM

Q: What does the source list for CC(C)Nc1c(C(=O)NC[C@@H](F)C(C)(C)O)cnn2cc(-c3cccnc3F)cc12 [Example 7, (R)—N-(2-fluoro-3-hydroxy-3-methylbutyl)-6-(2-fluoropyridin-3-yl)-4-(isopropylamino)pyrrolo[1,2-b]pyridazine-3-carboxamide]?
A: IC50 (JAK3 kinase): > 10 µM; Ratio of JAK3 IC50 to IRAK4 IC50 (JAK3 kinase): >1563; IC50 (IRAK4): 0.0064 µM

Q: For CC(C)Nc1c(C(=O)N[C@H]2CC[C@H](N)CC2)cnn2cc(-c3cccnc3)cc12 [Example 52, N-((1r,4r)-4-aminocyclohexyl)-4-(isopropylamino)-6-(pyridin-3-yl)pyrrolo[1,2-b]pyridazine-3-carboxamide], which IC50 (JAK3 kinase) is on record?
A: ~43 µM

Q: And the “Ratio of JAK3 IC50 to IRAK4 IC50” value (JAK3 kinase)?
A: ~1075

Q: What about the IC50 (IRAK4) of the same molecule?
A: 0.04 µM

Q: What does the source list for COc1cc(-c2cc3ncc(C(=O)NC[C@@H](F)C(C)(C)O)c(NC(C)C)n3n2)ccn1 [Example 148, (R)—N-(2-fluoro-3-hydroxy-3-methylbutyl)-7-(isopropylamino)-2-(2-methoxypyridin-4-yl)pyrazolo[1,5-a]pyrimidine-6-carboxamide]?
A: IC50 (JAK3 kinase): > 10 µM; Ratio of JAK3 IC50 to IRAK4 IC50 (JAK3 kinase): >164; IC50 (IRAK4): 0.061 µM

Q: Which IC50 (JAK3 kinase) does the source give for CC(C)(O)[C@H](F)CNC(=O)c1cnc2cc(-c3cccnc3)nn2c1NCC(F)F [Example 129, (R)-7-((2,2-difluoroethyl)amino)-N-(2-fluoro-3-hydroxy-3-methylbutyl)-2-(pyridin-3-yl) pyrazolo[1,5-a]pyrimidine-6-carboxamide] here?
A: > 10 µM

Q: And the “Ratio of JAK3 IC50 to IRAK4 IC50” value (JAK3 kinase)?
A: >33

Q: And the IC50 (IRAK4)?
A: 0.3 µM

Q: How did the IC50 (JAK3 kinase) turn out when CC(C)Nc1c(C(=O)NC[C@@H](F)C(C)(C)O)cnc2cc(-c3cccc(Cl)n3)nn12 [Example 153, (R)-2-(6-chloropyridin-2-yl)-N-(2-fluoro-3-hydroxy-3-methylbutyl)-7-(isopropylamino) pyrazolo[1,5-a]pyrimidine-6-carboxamide] was run?
A: > 10 µM

Q: What about the “Ratio of JAK3 IC50 to IRAK4 IC50” value (JAK3 kinase) of the same molecule?
A: >8

Q: And the IC50 (IRAK4)?
A: 1.23 µM

Q: Which IC50 (JAK3 kinase) does the source give for CC(C)(O)[C@H](F)CNC(=O)c1cnc2cc(-c3ccncc3F)nn2c1NCCC1CCCCO1 (stereo partly drawn) [Example 160, N—((R)-2-fluoro-3-hydroxy-3-methylbutyl)-2-(3-fluoropyridin-4-yl)-7-((2-(tetrahydro-2H-pyran-2-yl)ethyl)amino)pyrazolo[1,5-a]pyrimidine-6-carboxamide] here?
A: > 50 µM

Q: And the “Ratio of JAK3 IC50 to IRAK4 IC50” value (JAK3 kinase)?
A: >1111

Q: And the IC50 (IRAK4)?
A: 0.045 µM

Q: With Cc1ccc(-c2cc3ncc(C(=O)NC[C@@H](F)C(C)(C)O)c(NC(C)C)n3n2)cn1 [Example 131, (R)—N-(2-fluoro-3-hydroxy-3-methylbutyl)-7-(isopropylamino)-2-(6-methylpyridin-3-yl)pyrazolo[1,5-a]pyrimidine-6-carboxamide] as the molecule, how does the IC50 (JAK3 kinase) read?
A: > 50 µM

Q: And the “Ratio of JAK3 IC50 to IRAK4 IC50” value (JAK3 kinase)?
A: >2500

Q: And the IC50 (IRAK4)?
A: 0.02 µM

Q: CNC(=O)c1cncc(-c2cc3ncc(C(=O)NC[C@@H](F)C(C)(C)O)c(NC(C)C)n3n2)c1 [Example 156, (R)—N-(2-fluoro-3-hydroxy-3-methylbutyl)-7-(isopropylamino)-2-(5-(methylcarbamoyl)pyridin-3-yl)pyrazolo[1,5-a]pyrimidine-6-carboxamide] was tested. Which IC50 (JAK3 kinase) did it give?
A: > 10 µM

Q: And the “Ratio of JAK3 IC50 to IRAK4 IC50” value (JAK3 kinase)?
A: >11

Q: What about the IC50 (IRAK4) of the same molecule?
A: 0.91 µM

Q: Which results are given for CCOC(=O)N[C@H]1CC[C@H](NC(=O)c2cnn3cc(-c4ccncc4F)cc3c2NC(C)C)CC1 [Example 67, ethyl ((1r,4r)-4-(6-(3-fluoropyridin-4-yl)-4-(isopropylamino)pyrrolo[1,2-b]pyridazine-3-carboxamido)cyclohexyl)carbamate]?
A: IC50 (JAK3 kinase): > 50 µM; Ratio of JAK3 IC50 to IRAK4 IC50 (JAK3 kinase): 3846; IC50 (IRAK4): 0.013 µM

Q: Which results are given for CC(C)Nc1c(C(=O)NC[C@@H](F)C(C)(C)O)cnn2cc(-c3cnoc3)cc12 [Example 44, (R)—N-(2-fluoro-3-hydroxy-3-methylbutyl)-4-(isopropylamino)-6-(isoxazol-4-yl)pyrrolo[1,2-b]pyridazine-3-carboxamide]?
A: IC50 (JAK3 kinase): > 50 µM; Ratio of JAK3 IC50 to IRAK4 IC50 (JAK3 kinase): >33; IC50 (IRAK4): 1.5 µM

Q: For CC(=O)N1CCC(NC(=O)c2cnn3cc(-c4ccncc4F)nc3c2NC(C)C)CC1 [Example 112, N-(1-acetylpiperidin-4-yl)-2-(3-fluoropyridin-4-yl)-8-(isopropylamino)imidazo[1,2-b]pyridazine-7-carboxamide], which IC50 (JAK3 kinase) is on record?
A: > 10 µM

Q: And the “Ratio of JAK3 IC50 to IRAK4 IC50” value (JAK3 kinase)?
A: >909

Q: What about the IC50 (IRAK4) of the same molecule?
A: 0.011 µM

Q: Which IC50 (JAK3 kinase) does the source give for Cc1cncc(-c2cc3ncc(C(=O)NC[C@@H](F)C(C)(C)O)c(NC(C)C)n3n2)c1 [Example 146, (R)—N-(2-fluoro-3-hydroxy-3-methylbutyl)-7-(isopropylamino)-2-(5-methylpyridin-3-yl)pyrazolo[1,5-a]pyrimidine-6-carboxamide] here?
A: > 50 µM

Q: And the “Ratio of JAK3 IC50 to IRAK4 IC50” value (JAK3 kinase)?
A: >104

Q: What about the IC50 (IRAK4) of the same molecule?
A: 0.48 µM

Q: For CC(=O)N[C@H]1CC[C@H](NC(=O)c2cnn3cc(-c4ccc(C(N)=O)cc4)cc3c2NC(C)C)CC1 [Example 74, N-((1r,4r)-4-acetamidocyclohexyl)-6-(4-carbamoylphenyl)-4-(isopropylamino)pyrrolo[1,2-b] pyridazine-3-carboxamide], which IC50 (JAK3 kinase) is on record?
A: > 50 µM

Q: What about the “Ratio of JAK3 IC50 to IRAK4 IC50” value (JAK3 kinase) of the same molecule?
A: >521

Q: What about the IC50 (IRAK4) of the same molecule?
A: 0.096 µM

Q: Which results are given for CC(C)Nc1c(C(=O)NC[C@@H](F)C(C)(C)O)cnc2cc(-c3cccc(F)c3)nn12 [Example 140, (R)—N-(2-fluoro-3-hydroxy-3-methylbutyl)-2-(3-fluorophenyl)-7-(isopropylamino)pyrazolo[1,5-a]pyrimidine-6-carboxamide]?
A: IC50 (JAK3 kinase): > 50 µM; Ratio of JAK3 IC50 to IRAK4 IC50 (JAK3 kinase): >610; IC50 (IRAK4): 0.082 µM

— US12570659B2, “Bicyclic heteroaryl compounds useful as IRAK4 inhibitors” (BRISTOL-MYERS SQUIBB COMPANY, priority 2019, dated 2026)
